In the supplement of paper PMC10307832:

What was measured:
Assay in all cases: relative viability (nuclei count vs DMSO), 5 days (fraction); higher = more cells survive
JZL-184 + Lapatinib = compound: C1CN(CCC1C(C2=CC3=C(C=C2)OCO3)(C4=CC5=C(C=C4)OCO5)O)C(=O)OC6=CC=C(C=C6)[N+](=O)[O-] [JZL-184] + CS(=O)(=O)CCNCc1ccc(-c2ccc3ncnc(Nc4ccc(OCc5cccc(F)c5)c(Cl)c4)c3c2)o1 [Lapatinib] (partner 2 µM)
Summary of the method: (§1)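 Relative viability was taken as the ratio of nuclei in treated wells to nuclei in vehicle wells. Lung cancer cell lines in 1536-well plates received compounds by pin tool one day after seeding, either one drug alone or a fixed anchor-drug dose plus five library-drug doses (not always all listed) in √10 steps. Nuclei were counted on 4× images after 5 days of treatment, and values are medians of duplicate plates.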

JZL-184 + Pictilisib = compound: C1CN(CCC1C(C2=CC3=C(C=C2)OCO3)(C4=CC5=C(C=C4)OCO5)O)C(=O)OC6=CC=C(C=C6)[N+](=O)[O-] [JZL-184] + CS(=O)(=O)N1CCN(Cc2cc3nc(-c4cccc5[nH]ncc45)nc(N4CCOCC4)c3s2)CC1 [Pictilisib] (partner 1 µM)
Summary of the method: as §1

JZL-184 + Alpelisib = compound: C1CN(CCC1C(C2=CC3=C(C=C2)OCO3)(C4=CC5=C(C=C4)OCO5)O)C(=O)OC6=CC=C(C=C6)[N+](=O)[O-] [JZL-184] + Cc1nc(NC(=O)N2CCC[C@H]2C(N)=O)sc1-c1ccnc(C(C)(C)C(F)(F)F)c1 [Alpelisib] (partner 2 µM)
Summary of the method: as §1

JZL-184 + Dasatinib = compound: C1CN(CCC1C(C2=CC3=C(C=C2)OCO3)(C4=CC5=C(C=C4)OCO5)O)C(=O)OC6=CC=C(C=C6)[N+](=O)[O-] [JZL-184] + Cc1nc(Nc2ncc(C(=O)Nc3c(C)cccc3Cl)s2)cc(N2CCN(CCO)CC2)n1 [Dasatinib] (partner 0.075 µM)
Summary of the method: as §1

JZL-184 + Phenformin = compound: C1CN(CCC1C(C2=CC3=C(C=C2)OCO3)(C4=CC5=C(C=C4)OCO5)O)C(=O)OC6=CC=C(C=C6)[N+](=O)[O-] [JZL-184] + N=C(N)NC(=N)NCCc1ccccc1 [Phenformin] (partner 250 µM)
Summary of the method: as §1

Cell Line	relative viability (JZL-184 + Lapatinib; first compound 0.04 µM)	relative viability (JZL-184 + Lapatinib; first compound 0.4 µM)	relative viability (JZL-184 + Lapatinib; first compound 1.265 µM)	relative viability (JZL-184 + Lapatinib; first compound 4 µM)	relative viability (JZL-184 + Pictilisib; first compound 0.04 µM)	relative viability (JZL-184 + Pictilisib; first compound 0.4 µM)	relative viability (JZL-184 + Pictilisib; first compound 1.265 µM)	relative viability (JZL-184 + Pictilisib; first compound 4 µM)	relative viability (JZL-184 + Alpelisib; first compound 0.04 µM)	relative viability (JZL-184 + Alpelisib; first compound 0.4 µM)	relative viability (JZL-184 + Alpelisib; first compound 1.265 µM)	relative viability (JZL-184 + Alpelisib; first compound 4 µM)	relative viability (JZL-184 + Dasatinib; first compound 0.04 µM)	relative viability (JZL-184 + Dasatinib; first compound 0.4 µM)	relative viability (JZL-184 + Dasatinib; first compound 1.265 µM)	relative viability (JZL-184 + Dasatinib; first compound 4 µM)	relative viability (JZL-184 + Phenformin; first compound 0.04 µM)	relative viability (JZL-184 + Phenformin; first compound 0.4 µM)	relative viability (JZL-184 + Phenformin; first compound 1.265 µM)	relative viability (JZL-184 + Phenformin; first compound 4 µM)
NCI-H1651	0.833	0.715	0.888	0.798	0.842	0.533	0.536	0.499	1.05	0.929	1.03	0.834	0.407	0.376	0.487	0.42	0.393	0.3	0.337	0.353
NCI-H1666	0.647	0.65	0.585	0.633	0.483	0.517	0.5	0.491	1.04	0.919	1.05	1.06	0.842	0.861	0.764	0.783	0.614	0.585	0.538	0.534
NCI-H1734	1.22	0.959	1.15	1.04	0.519	0.471	0.505	0.482	0.658	0.545	0.714	0.642	0.503	0.425	0.442	0.453	0.469	0.36	0.38	0.349
NCI-H1755	1.02	1.01	1.07	0.962	0.432	0.339	0.545	0.401	0.942	0.866	0.943	0.885	0.445	0.428	0.406	0.396	0.636	0.621	0.614	0.601
NCI-H1792	0.974	0.858	0.926	0.96	0.304	0.232	0.302	0.28	0.835	0.613	0.762	0.757	0.854	0.771	0.912	0.718	0.288	0.147	0.62	0.281
NCI-H1793	0.853	0.492	0.812	0.422	0.295	0.214	0.344	0.31	0.689	0.706	0.77	0.691	0.511	0.36	0.41	0.369	0.162	0.368	0.44	0.456
NCI-H1915	1.15	0.973	0.998	0.935	1.05	0.914	1.1	0.918	1.08	1.04	1.04	1.04	0.318	0.298	0.364	0.281	0.378	0.364	0.377	0.367
NCI-H1944	0.805	0.803	0.875	0.846	0.345	0.318	0.34	0.335	0.798	0.869	0.842	0.804	0.256	0.208	0.221	0.213	0.194	0.192	0.198	0.199
NCI-H1975	1.08	0.824	1.02	0.888	0.347	0.281	0.304	0.287	0.751	0.673	0.642	0.577	0.427	0.356	0.347	0.31	0.414	0.411	0.395	0.397
NCI-H1993	0.767	0.807	0.827	0.885	0.721	0.864	0.847	0.794	0.719	0.72	0.711	0.677	0.498	0.617	0.709	0.674	0.428	0.476	0.487	0.47
NCI-H2009	1.15	0.805	0.928	1.01	0.985	0.672	0.914	0.844	1.17	1.1	1.16	1.09	0.354	0.28	0.333	0.239	0.518	0.473	0.51	0.461
NCI-H2023	1.14	0.853	0.964	0.802	0.27	0.22	0.301	0.241	0.654	0.593	0.568	0.593	0.713	0.549	0.587	0.48	0.477	0.342	0.469	0.35
NCI-H2085		0.657	0.764	0.753	0.459	0.401	0.467	0.549	0.946	0.904	0.905	0.811	0.236	0.234	0.299	0.261	0.433	0.682	0.843	0.737
NCI-H2087	1.29	0.824	0.99	1.18	0.824	0.677	0.934	1	1.11	1.02	1.11	1.01	0.905	0.905	0.716	0.875	0.538	0.449	0.515	0.486
NCI-H2126	0.755	0.779	0.768	0.764	0.498	0.499	0.514	0.5	0.721	0.738	0.802	0.717	0.612	0.639	0.607	0.612	0.6	0.541	0.538	0.532
